# From ChEMBL document CHEMBL4190260, “Antibiofilm potential of 16-oxo-cleroda-3, 13(14) E-diene-15 oic acid and its five new γ-amino γ-lactone derivatives against methicillin resistant Staphylococcus aureus and Streptococcus mutans” (2017)
# Calls of active or inactive are those of the source. The calls are words filed in the database; no cut-off is given here.
# How the values were obtained:
# Staphylococcus aureus [1] = experiment: Antibiofilm activity against methicillin-resistant Staphylococcus aureus ATCC 43300 assessed as formation of broken chains at MBIC concentration by uranyl acetate-staining based electron microscopy; assay type: functional, organism-based
# Staphylococcus aureus [2] = experiment: Antibacterial activity against methicillin-resistant Staphylococcus aureus ATCC 43300 assessed as inhibition of colony formation at 4 to 16 ug/ml measured after 24 hrs; assay type: functional, organism-based
# Staphylococcus aureus [3] = experiment: Antibacterial activity against methicillin-resistant Staphylococcus aureus ATCC 43300 assessed as log reduction in bacterial count at 8 ug/ml measured after 24 hrs; assay type: functional
# Streptococcus mutans [4] = experiment: Antibiofilm activity against Streptococcus mutans ATCC 25175 assessed as down-regulation of gtfB gene expression by semi-quantitative PCR analysis; assay type: functional, organism-based
# Staphylococcus aureus [5] = experiment: Antibiofilm activity against methicillin-resistant Staphylococcus aureus ATCC 43300 assessed as down-regulation of IcaA gene expression by semi-quantitative PCR analysis; assay type: functional, organism-based
# Streptococcus mutans [6] = experiment: Antibiofilm activity against Streptococcus mutans ATCC 25175 measured after overnight incubation by crystal violet-staining based assay; assay type: functional
# Streptococcus mutans [7] = experiment: Antibiofilm activity against Streptococcus mutans ATCC 25175 assessed as down-regulation of luxS gene expression by semi-quantitative PCR analysis; assay type: functional, organism-based
# Staphylococcus aureus [8] = experiment: Potency index, ratio of 6 amino penicillinic acid MIC to test compound MIC for methicillin-resistant Staphylococcus aureus ATCC 43300; assay type: functional
# Staphylococcus aureus [9] = experiment: Antibacterial activity against methicillin-resistant Staphylococcus aureus ATCC 43300 measured after overnight incubation by two-fold serial dilution method; assay type: functional
# Staphylococcus aureus [10] = experiment: Antibacterial activity against methicillin-resistant Staphylococcus aureus ATCC 43300 assessed as delay in bacterial growth at MIC after 10 mins; assay type: functional, organism-based
# Streptococcus mutans [11] = experiment: Antibiofilm activity against Streptococcus mutans ATCC 25175 assessed as disruption of biofilm at 10 to 12 ug/ml by fluorescence microscopy; assay type: functional, organism-based
# Staphylococcus aureus [12] = experiment: Bacteriostatic activity against methicillin-resistant Staphylococcus aureus ATCC 43300 assessed as log reduction in colony forming units at 15 to 20 ug/ml after 24 hrs; assay type: functional, organism-based
# Staphylococcus aureus [13] = experiment: Antibacterial activity against methicillin-resistant Staphylococcus aureus ATCC 43300 assessed as delay in bacterial growth at 2 times MIC after 10 mins; assay type: functional, organism-based
# Streptococcus mutans [14] = experiment: Antibacterial activity against Streptococcus mutans ATCC 25175 assessed as time delay in bacterial growth at MIC, 2 times MIC and 4 times MIC; assay type: functional
# Staphylococcus aureus [15] = experiment: Antibacterial activity against methicillin-resistant Staphylococcus aureus ATCC 43300 assessed as reduction in bacterial viability at 4 to 16 ug/ml measured after 24 hrs by MTT assay; assay type: functional
# Streptococcus mutans [16] = experiment: Antibacterial activity against Streptococcus mutans ATCC 25175 assessed as reduction in acid production at 0.5 times MIC and MIC measured up to 24 hrs; assay type: functional, organism-based
# Streptococcus mutans [17] = experiment: Potency index, ratio of 6 amino penicillinic acid MIC to test compound MIC for Streptococcus mutans ATCC 25175; assay type: functional
# Klebsiella pneumoniae [18] = experiment: Antibacterial activity against Klebsiella pneumoniae ATCC 13882 measured after overnight incubation by two-fold serial dilution method; assay type: functional
# Streptococcus mutans [19] = experiment: Antibacterial activity against Streptococcus mutans ATCC 25175 measured after overnight incubation by two-fold serial dilution method; assay type: functional
# Staphylococcus aureus [20] = experiment: Antibacterial activity against methicillin-resistant Staphylococcus aureus ATCC 43300 assessed as reduction in acid production at 0.5 times MIC and MIC measured up to 24 hrs; assay type: functional, organism-based
# Staphylococcus aureus [21] = experiment: Antibiofilm activity against methicillin-resistant Staphylococcus aureus ATCC 43300 measured after overnight incubation by crystal violet-staining based assay; assay type: functional
# Staphylococcus aureus [22] = experiment: Antibiofilm activity against methicillin-resistant Staphylococcus aureus ATCC 43300 assessed as formation of oviod cells at MBIC concentration by uranyl acetate-staining based electron microscopy; assay type: functional, organism-based
# Streptococcus mutans [23] = experiment: Potency index, ratio of cefixime MIC to test compound MIC for Streptococcus mutans ATCC 25175; assay type: functional
# Staphylococcus aureus [24] = experiment: Potency index, ratio of gentamycin sulphate MIC to test compound MIC for methicillin-resistant Staphylococcus aureus ATCC 43300; assay type: functional
# Streptococcus mutans [25] = experiment: Bactericidal activity against Streptococcus mutans ATCC 25175 measured after overnight incubation; assay type: functional
# Streptococcus mutans [26] = experiment: Antibiofilm activity against Streptococcus mutans ATCC 25175 assessed as formation of broken chains at MBIC concentration by uranyl acetate-staining based electron microscopy; assay type: functional, organism-based
# Streptococcus mutans [27] = experiment: Antibiofilm activity against Streptococcus mutans ATCC 25175 assessed as formation of oviod cells at MBIC concentration by uranyl acetate-staining based electron microscopy; assay type: functional, organism-based
# Streptococcus mutans [28] = experiment: Antibacterial activity against Streptococcus mutans ATCC 25175 assessed as log reduction in bacterial count at 10 ug/ml measured after 24 hrs relative to control; assay type: functional
# Streptococcus mutans [29] = experiment: Antibacterial activity against Streptococcus mutans ATCC 25175 measured assessed as inhibition of colony formation at 5 to 20 ug/ml after 24 hrs; assay type: functional, organism-based
# Staphylococcus aureus [30] = experiment: Bactericidal activity against methicillin-resistant Staphylococcus aureus ATCC 43300 measured after overnight incubation; assay type: functional
# Streptococcus mutans [31] = experiment: Antibacterial activity against Streptococcus mutans ATCC 25175 measured assessed as reduction in bacterial viability at 5 to 20 ug/ml after 24 hrs by MTT assay; assay type: functional
# Staphylococcus aureus [32] = experiment: Antibacterial activity against methicillin-resistant Staphylococcus aureus ATCC 43300 assessed as delay in bacterial growth at 4 times MIC after 10 mins; assay type: functional, organism-based
# Staphylococcus aureus [33] = experiment: Potency index, ratio of cefixime MIC to test compound MIC for methicillin-resistant Staphylococcus aureus ATCC 43300; assay type: functional
# Streptococcus mutans [34] = experiment: Bacteriostatic activity against Streptococcus mutans ATCC 25175 assessed as log reduction in colony forming units at 12 to 16 ug/ml after 24 hrs; assay type: functional, organism-based
# Streptococcus mutans [35] = experiment: Antibiofilm activity against Streptococcus mutans ATCC 25175 assessed as down-regulation of gtfC gene expression by semi-quantitative PCR analysis; assay type: functional, organism-based
# Staphylococcus aureus [36] = experiment: Antibiofilm activity against methicillin-resistant Staphylococcus aureus ATCC 43300 assessed as disruption of biofilm at 10 to 12 ug/ml by fluorescence microscopy; assay type: functional, organism-based
# Klebsiella pneumoniae [37] = experiment: Antibiofilm activity against Klebsiella pneumoniae ATCC 13882 measured after overnight incubation by crystal violet-staining based assay; assay type: functional
# Proteus mirabilis [38] = experiment: Antibacterial activity against Proteus mirabilis ATCC 12453 measured after overnight incubation by two-fold serial dilution method; assay type: functional
# Proteus mirabilis [39] = experiment: Antibiofilm activity against Proteus mirabilis ATCC 12453 measured after overnight incubation by crystal violet-staining based assay; assay type: functional
# Klebsiella pneumoniae [40] = experiment: Antibiofilm activity against Klebsiella pneumoniae ATCC 13882 at >= 50 ug/ml measured after overnight incubation by crystal violet-staining based assay; assay type: functional, organism-based
# Proteus mirabilis [41] = experiment: Antibiofilm activity against Proteus mirabilis ATCC 12453 at >= 50 ug/ml measured after overnight incubation by crystal violet-staining based assay; assay type: functional, organism-based
smiles,measurement,setting,value
CC1=CCC[C@@H]2[C@@](C)(CC/C(C=O)=C\C(=O)O)[C@H](C)CC[C@@]12C,Activity,Staphylococcus aureus [1],Active
same,Activity,Staphylococcus aureus [2],Active
same,Activity,Staphylococcus aureus [3],9 log10CFU/ml
same,Activity,Streptococcus mutans [4],Active
same,Activity,Staphylococcus aureus [5],Active
same,Activity,Streptococcus mutans [6],92.06%
same,MBIC,Streptococcus mutans [6],20 µg/mL
same,Activity,Streptococcus mutans [7],Active
same,Ratio,Staphylococcus aureus [8],5
same,MIC,Staphylococcus aureus [9],16 µg/mL
same,Activity,Staphylococcus aureus [10],Active
same,Activity,Streptococcus mutans [11],Active
same,Activity,Staphylococcus aureus [12],Active
same,Activity,Staphylococcus aureus [13],Active
same,Time,Streptococcus mutans [14],>=8 hr
same,Activity,Staphylococcus aureus [15],<=90%
same,Activity,Streptococcus mutans [16],Active
same,Ratio,Streptococcus mutans [17],5
same,MIC,Klebsiella pneumoniae [18],inactive
same,MIC,Streptococcus mutans [19],20 µg/mL
same,Activity,Staphylococcus aureus [20],Active
same,Activity,Staphylococcus aureus [21],94.26%
same,MBIC,Staphylococcus aureus [21],16 µg/mL
same,Activity,Staphylococcus aureus [22],Active
same,Ratio,Streptococcus mutans [23],5
same,Ratio,Staphylococcus aureus [24],5
same,MBC,Streptococcus mutans [25],185 µg/mL
same,Activity,Streptococcus mutans [26],Active
same,Activity,Streptococcus mutans [27],Active
same,Activity,Streptococcus mutans [28],7.5 - 8 log10CFU/ml
same,Activity,Streptococcus mutans [29],Active
same,MBC,Staphylococcus aureus [30],95 µg/mL
same,Activity,Streptococcus mutans [31],<=90%
same,Activity,Staphylococcus aureus [32],Active
same,Ratio,Staphylococcus aureus [33],5
same,Activity,Streptococcus mutans [34],Active
same,Activity,Streptococcus mutans [35],Active
same,Activity,Staphylococcus aureus [36],Active
CN[C@@H]1[C@@H](O)[C@@H](O[C@@H]2[C@@H](O)[C@H](O[C@H]3O[C@H](CN)CC[C@H]3N)[C@@H](N)C[C@H]2N)OC[C@]1(C)O.O=S(=O)(O)O,Activity,Streptococcus mutans [6],76.42%
same,MBIC,Streptococcus mutans [6],10 µg/mL
same,MIC,Staphylococcus aureus [9],135 µg/mL
same,MIC,Klebsiella pneumoniae [18],3 µg/mL
same,MIC,Streptococcus mutans [19],10 µg/mL
same,Activity,Staphylococcus aureus [21],90.8%
same,MBIC,Staphylococcus aureus [21],150 µg/mL
same,Activity,Klebsiella pneumoniae [37],89.92%
same,MBIC,Klebsiella pneumoniae [37],3 µg/mL
same,MIC,Proteus mirabilis [38],6.25 µg/mL
same,Activity,Proteus mirabilis [39],89.22%
same,MBIC,Proteus mirabilis [39],6.25 µg/mL
CC1(C)S[C@@H]2[C@H](N)C(=O)N2[C@H]1C(=O)O,Activity,Streptococcus mutans [6],29.31%
same,MBIC,Streptococcus mutans [6],7 µg/mL
same,MIC,Staphylococcus aureus [9],135 µg/mL
same,MIC,Klebsiella pneumoniae [18],35 µg/mL
same,MIC,Streptococcus mutans [19],70 µg/mL
same,Activity,Staphylococcus aureus [21],60.46%
same,MBIC,Staphylococcus aureus [21],150 µg/mL
same,Activity,Klebsiella pneumoniae [37],68.9%
same,MBIC,Klebsiella pneumoniae [37],35 µg/mL
same,MIC,Proteus mirabilis [38],35 µg/mL
same,Activity,Proteus mirabilis [39],89.2%
same,MBIC,Proteus mirabilis [39],35 µg/mL
CC1=CCC[C@@H]2[C@@](C)(CC/C(C)=C/C(=O)O)[C@H](C)CC[C@@]12C,MIC,Streptococcus mutans [19],inactive
CC1=CCC[C@@H]2[C@@](C)(CCC3=CC(=O)OC3Nc3cccc(F)c3)[C@H](C)CC[C@@]12C (mixture of isomers),Activity,Streptococcus mutans [6],73.17%
same,MBIC,Streptococcus mutans [6],55 µg/mL
same,MIC,Staphylococcus aureus [9],60 µg/mL
same,MIC,Klebsiella pneumoniae [18],inactive
same,MIC,Streptococcus mutans [19],60 µg/mL
same,Activity,Klebsiella pneumoniae [40],Active
same,Activity,Staphylococcus aureus [21],83.12%
same,Activity,Proteus mirabilis [41],Active
same,MIC,Proteus mirabilis [38],125 µg/mL
same,Activity,Proteus mirabilis [39],68.75%
same,MBIC,Proteus mirabilis [39],110 µg/mL
